{"source": "paper PMC8230315", "about": "“A Pan-Inhibitor for Protein Arginine Methyltransferase Family Enzymes” (Biomolecules, 2021)", "key": {"NTMT1": {"tested_on": "NTMT1", "assay": "Selectivity SAHH-coupled fluorescence assay, NTMT1", "type": "biochemical", "from_the_text": "(§1) We chose the top four potent compounds (6b and 6l–n) to investigate their selectivities against several in-house methyltransferases including protein arginine methyltransferase TbPRMT7, two members of the protein lysine methyltransferase PKMT (G9a and SETD7), protein N-terminal methyltransferase 1 (NTMT1), and a small molecule methyltransferase nicotinamide N-methyltransferase (NNMT), all of which have a SAM binding site.\n(§2) A fluorescence-based SAHH-coupled assay was applied to study the effect of the compound on methyltransferase activity of PRMT7, NTMT1, SETD7, G9a, NNMT, and SAHH. For PRMT7, the assay was performed in a final well volume of 100 μL: 25 mM Tris (pH = 7.5), 50 mM KCl, 0.01% Triton X-100, 5 μM SAHH, 0.2 μM PRMT7, 3 μM AdoMet, and 15 μM ThioGlo1. After incubation for 10 min with the inhibitor, reactions were initiated by the addition of 60 μM H4-21 peptide, and the reaction was monitored for 15 min. […] After incubation for 10 min with the inhibitor, reactions were initiated by the addition of 0.5 μM GPKRIA peptide, and the reaction was monitored for 15 min. […] After incubation for 10 min with the inhibitor, reactions were initiated by the addition of 90 μM H3-21 peptide, and the reaction was monitored for 15 min. […] After incubation for 10 min with the inhibitor, reactions were initiated by the addition of 10 μM nicotinamide, and the reaction was monitored for 18 min. […]"}, "[1]": {"tested_on": "histone H4 Arg3 asymmetric dimethylation (H4R3me2a)", "assay": "Cellular arginine methylation assay, Western blot in HEK293 cells", "type": "cell-based", "details": "48 h, at 10 µM", "description": "Furthermore, we proceeded to investigate the inhibitory effects of II757 on the methylation level of histone H4 Arg3 via Western blotting to check its cellular inhibition. […] Future studies will focus on tethering this moiety with reported substrate-competitive inhibitors to enhance the selectivity and cellular potency.\nHEK293 cell line was cultured in DMEM media supplemented with 10% FBS and 1% antibiotic-antimycotic (Gibco, Fisher, Waltham, MA, USA). The cells were maintained in a tissue culture dish (Falcon 353003, Fisher, Waltham, MA, USA) until seeding at a density of 0.03 × 10^6 cells/mL into a 24-well tissue culture plate (Falcon 353047, Fisher, Waltham, MA, USA). The cells were incubated overnight at 37 °C in 5% CO2 with the lid on. They were then treated with the inhibitors at different concentrations for 48 h. […]\nThe protein was quantified using BCA (Pierce BCA Protein Assay Kit, 23225, Fisher, Waltham, MA, USA) and equal amounts of protein were resolved by SDS-PAGE electrophoresis and blotted on Transfer membrane (Immun-Blot PVDF Membranes, Bio-Rad, Hercules, CA, USA Bio-Rad, 1620177). […] The membranes were washed three times with 1X TBST for 5 min each, and the proteins were detected by ECL (Bio-Rad, Hercules, CA, USA)."}, "PRMT1": {"target": "PRMT1 (Homo sapiens, UniProt Q99873)", "sequence (Q99873 whole entry, species assumed)": "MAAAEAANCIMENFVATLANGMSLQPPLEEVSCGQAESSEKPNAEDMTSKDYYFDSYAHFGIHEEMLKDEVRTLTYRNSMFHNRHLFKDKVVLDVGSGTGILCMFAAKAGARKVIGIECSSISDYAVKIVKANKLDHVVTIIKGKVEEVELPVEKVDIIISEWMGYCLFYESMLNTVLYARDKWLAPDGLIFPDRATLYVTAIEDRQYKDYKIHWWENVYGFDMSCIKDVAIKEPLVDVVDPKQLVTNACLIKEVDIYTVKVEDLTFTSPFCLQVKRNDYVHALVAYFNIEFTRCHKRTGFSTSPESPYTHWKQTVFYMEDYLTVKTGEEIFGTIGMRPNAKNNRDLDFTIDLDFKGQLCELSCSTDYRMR", "assay": "Inhibition mechanism kinetic analysis, SAHH-coupled fluorescence assay with PRMT1", "type": "biochemical", "description": "The fluorescence-based SAHH-coupled assay was employed for the enzyme kinetic study. Varying concentrations of SAM (from 0.5 to 8 Km) with 5 μM fixed concentration of H4-21 or varying concentration of H4-21 (from 0.5 to 8 Km) with 10 μM fixed concentration of SAM was included in reactions with a series concentration of compounds. All the IC50 values were determined in triplicate. Fluorescence was monitored on a BMG CLARIOstar microplate with excitation at 380 nm and emission at 505 nm. Data were processed using GraphPad Prism software 7.0."}, "PRMT8": {"target": "T1, PRMT8 (Homo sapiens, UniProt Q9NR22)", "T1 construct": "purchased Reaction Biology", "assay": "HotSpot radioisotope 3H-AdoMet methyltransferase assay, PRMT8", "type": "biochemical", "description": "Future studies will focus on obtaining structural information of II757 bound to PRMTs to inform how to connect to a substrate portion to increase both potency and selectivity for each PRMT.\nFigure 6 Selectivity of II757 against the panel of PRMTs. II757 was tested in 10 doses with threefold serial dilution in the HotSpot methyltransferase assay at reaction biology. TEXT PRINTED IN THE PICTURE: II757: IC50 (nM) PRMT1: 16.4; IC50 (nM) PRMT3: 321; IC50 (nM) PRMT4: 5.05; IC50 (nM) PRMT5/MEP50 Complex: 18.2; IC50 (nM) PRMT5 (C449S)/MEP50: 36.6; IC50 (nM) PRMT6: 30.5; IC50 (nM) PRMT7: 555; IC50 (nM) PRMT8: 32.1"}, "G9a": {"tested_on": "G9a", "assay": "Selectivity SAHH-coupled fluorescence assay, G9a", "type": "biochemical", "from_the_text": "as §1, §2"}}, "note": "“Also recorded” adds a separate entry of the source."}
{"smiles": "N=C(NCCCSC[C@H]1O[C@@H](n2cnc3c(N)ncnc32)[C@H](O)[C@@H]1O)Nc1cccc(Br)c1", "note": "[Compound 6l, 1-(3-((((2S,3S,4R,5R)-5-(6-amino-9H-purin-9-yl)-3,4-dihydroxytetrahydrofuran-2-yl)methyl)thio)propyl)-3-(3-bromophenyl)guanidine]", "values": [{"measurement": "selectivity over NTMT1", "setting": "NTMT1", "result": "over 1000 fold"}, {"measurement": "H4R3me2a level", "setting": "[1]", "result": "decrease"}, {"measurement": "inhibition pattern versus peptide substrate H4-21", "setting": "PRMT1; H4-21 from 0.5 to 8 Km, SAM fixed at 10 µM", "result": "noncompetitive"}, {"measurement": "inhibition pattern versus SAM", "setting": "PRMT1; SAM from 0.5 to 8 Km, H4-21 fixed at 5 µM, listed as II757", "result": "competitively binds at the SAM binding site; also recorded: SAM-competitive inhibitor"}, {"measurement": "IC50", "setting": "PRMT8", "result": 32.1, "unit": "nM"}, {"measurement": "selectivity over G9a", "setting": "G9a", "result": "over 1000 fold"}]}
